For 3 molecules, EC50 and CC50 results are on record in patent US10865211B2 (ENANTA PHARMACEUTICALS, INC, priority 2018, dated 2020).

Data set [1] relates to 2.2.15 cells. Nature of the data set: Antiviral activity in 2.2.15 cells: reduction of viral product accumulation (qPCR, HBsAg/HBeAg ELISA). In kind it is cell-based, HBV. The settings on record: Hepatitis B virus, 120 h, day 5 post treatment, concentration reducing viral product accumulation in cell lysates or supernatants by 50% relative to no drug controls. A digest of the protocol:
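HBV-producing 2.2.15 cells, 35,000/well, treated with 5-fold serial compound dilutions at 0.5% final DMSO for 5 days. Lysate HBV DNA by qPCR or supernatant HBsAg/HBeAg by ELISA; EC50 is 50% reduction versus no-drug control, binned A<0.1 μM, B 0.1-1 μM, C>1 μM.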
On the technique in general: In qPCR the cycle at which signal appears reflects the starting amount.

Data set [2] in a line: Compound induced cellular toxicity in HepG2 cells (ATPlite). In kind it is cell-based. The settings on record: human, three days, ATPlite 1 Step, concentration reducing total ATP levels by 50% relative to no drug controls. As for the experimental part:
At day 3, post seeding cells are treated with ATPlite 1 Step according to the manufacturer's instructions.
(In general: Cellular ATP, detected with luciferase, serves as a proxy for viable cell number.)

Each structure is given as a SMILES string.

The EC50 is the concentration needed to bring the measured effect to its halfway point. Read a low EC50 as greater potency. What is called CC50 is the concentration at which the toxic effect on the cells reaches its halfway point. Read a high CC50 as better tolerance by the cells. In the case of `CC(C)(C)[C@@H]1Cc2c(oc3c(-c4cn[nH]c4)cccc23)-c2c(F)c(=O)c(C(=O)O)cn21` [Example 50, (S)-6-(tert-butyl)-1-fluoro-2-oxo-11-(1H-pyrazol-4-yl)-6,7-dihydro-2H-benzofuro[2,3-a]quinolizine-3-carboxylic acid], in data set [1], the half-maximal effective concentration (EC50) was less than 0.1 µM. The same molecule came in with a CC50 at 3 days in data set [2] greater than 25 µM.

As to `CC(C)(C)[C@@H]1Cc2c(oc3c(C4CC4)cccc23)-c2cc(=O)c(C(=O)O)cn21` [Example 43, (S)-6-(tert-butyl)-11-cyclopropyl-2-oxo-6,7-dihydro-2H-benzofuro[2,3-a]quinolizine-3-carboxylic acid], in data set [1], the EC50 is less than 0.1 µM. This molecule also showed a CC50 at 3 days in data set [2] of 10 to 25 µM.

With `CC(C)(C)[C@@H]1Cc2c(oc3c(-c4cn[nH]c4)cccc23)-c2cc(=O)c(C(=O)O)cn21` [Example 32, (S)-6-(tert-butyl)-2-oxo-11-(1H-pyrazol-4-yl)-6,7-dihydro-2H-benzofuro[2,3-a]quinolizine-3-carboxylic acid], the EC50 in data set [1] was less than 0.1 µM. Further, in data set [2], the CC50 at 3 days is greater than 25 µM.
